Calls of active or inactive are those of the source. The calls are words filed in the database; no cut-off is given here.
Legend:
[1] = Antiproliferative activity against human MIAPaCa2 cells assessed as cell viability after 48 hrs by MTT assay; type: functional, cell-based; conditions: MIA PaCa-2, 48 h
[2] = test system: PC-3; experiment: Antiproliferative activity against human PC3 cells assessed as cell viability after 48 hrs by MTT assay; type: functional, cell-based; conditions: PC-3, 48 h
[3] = test system: HepG2; experiment: Antiproliferative activity against human HepG2 cells assessed as cell viability after 48 hrs by MTT assay; type: functional, cell-based; conditions: HepG2, 48 h
[4] = test system: HL-60; experiment: Cytotoxicity against human HL60 cells; type: functional, cell-based
[5] = test system: PC-3; experiment: Cell cycle arrest in human PC3 cells assessed as accumulation at S phase after 24 hrs by propidium iodide based flow cytometry; type: functional
[6] = test system: PC-3; experiment: Cell cycle arrest in human PC3 cells assessed as accumulation at sub G1 phase after 24 hrs by propidium iodide based flow cytometry; type: functional
[7] = test system: PC-3; experiment: Cell cycle arrest in human PC3 cells assessed as accumulation at S phase at 10 uM after 24 hrs by propidium iodide based flow cytometry (reference value: 30%); type: functional
[8] = test system: PC-3; experiment: Cell cycle arrest in human PC3 cells assessed as accumulation at G2 phase at 10 uM after 24 hrs by propidium iodide based flow cytometry (reference value: 20%); type: functional
[9] = test system: PC-3; experiment: Induction of apoptosis in human PC3 cells assessed as decrease in Bcl2 to Bax ratio at 5 to 20 uM after 24 hrs by western blot analysis (reference value: 5); type: functional
[10] = test system: PC-3; experiment: Cell cycle arrest in human PC3 cells assessed as accumulation at sub G1 phase at 5 uM after 24 hrs by propidium iodide based flow cytometry (reference value: 3%); type: functional
[11] = test system: PC-3; experiment: Disruption of mitochondrial membrane potential in human PC3 cells at 5 uM after 24 hrs by rhodamine-123 based fluorescence assay (reference value: 5%); type: functional
[12] = test system: PC-3; experiment: Cell cycle arrest in human PC3 cells assessed as accumulation at S phase at 5 uM after 24 hrs by propidium iodide based flow cytometry (reference value: 30%); type: functional
[13] = test system: PC-3; experiment: Antiproliferative activity against human PC3 cells assessed as cell viability after 18 hrs by MTT assay; type: functional, cell-based; conditions: PC-3, 18 h
[14] = test system: PC-3; experiment: Cell cycle arrest in human PC3 cells assessed as accumulation at sub G1 phase at 10 uM after 24 hrs by propidium iodide based flow cytometry (reference value: 3%); type: functional
[15] = test system: PC-3; experiment: Cell cycle arrest in human PC3 cells assessed as accumulation at G1 phase at 20 uM after 24 hrs by propidium iodide based flow cytometry (reference value: 50%); type: functional
[16] = test system: PC-3; experiment: Cell cycle arrest in human PC3 cells assessed as accumulation at G1 phase at 5 uM after 24 hrs by propidium iodide based flow cytometry (reference value: 50%); type: functional
[17] = test system: PC-3; experiment: Cell cycle arrest in human PC3 cells assessed as accumulation at G2 phase at 5 uM after 24 hrs by propidium iodide based flow cytometry (reference value: 20%); type: functional
[18] = Up regulation of PARP-1 expression in human PC3 cells at 5 to 20 uM after 24 hrs by western blot analysis; type: functional, cell-based; conditions: PC-3
[19] = test system: HUVEC; experiment: Antiangiogenic activity in HUVEC assessed as VEGF-induced migration after 24 hrs by wound healing assay; type: functional, cell-based; conditions: Homo sapiens
[20] = test system: MIA PaCa-2; experiment: Antiproliferative activity against human MIAPaCa2 cells assessed as cell viability by MTT assay; type: functional, cell-based; conditions: TDE = time-dependent effect
[21] = test system: PC-3; experiment: Disruption of mitochondrial membrane potential in human PC3 cells at 20 uM after 24 hrs by rhodamine-123 based fluorescence assay (reference value: 5%); type: functional
[22] = test system: PC-3; experiment: Induction of apoptosis in human PC3 cells assessed as translocation of Bax from cytosol to mitochondria at 5 to 20 uM after 24 hrs by western blot analysis; type: functional, cell-based
[23] = test system: PC-3; experiment: Cell cycle arrest in human PC3 cells assessed as accumulation at G1 phase at 10 uM after 24 hrs by propidium iodide based flow cytometry (reference value: 50%); type: functional
[24] = test system: PC-3; experiment: Antiproliferative activity against human PC3 cells assessed as cell viability after 24 hrs by MTT assay; type: functional, cell-based; conditions: PC-3, 24 h
[25] = test system: HUVEC; experiment: Antiangiogenic activity in HUVEC assessed as wound closure level at 20 uM after 24 hrs by wound healing assay (reference value: 100%); type: functional, Homo sapiens
[26] = test system: PC-3; experiment: Cell cycle arrest in human PC3 cells assessed as accumulation at G2 phase at 20 uM after 24 hrs by propidium iodide based flow cytometry (reference value: 20%); type: functional
[27] = test system: PC-3; experiment: Down regulation of procaspase-8 expression in human PC3 cells at 5 to 20 uM after 24 hrs by western blot analysis; type: functional, cell-based
[28] = test system: PC-3; experiment: Induction of apoptosis in human PC3 cells assessed as nuclear condensation after 24 hrs by fluorescence microscopic analysis; type: functional, cell-based
[29] = test system: PC-3; experiment: Cell cycle arrest in human PC3 cells assessed as accumulation at sub G1 phase at 20 uM after 24 hrs by propidium iodide based flow cytometry (reference value: 3%); type: functional
[30] = test system: PC-3; experiment: Antiangiogenic activity in human PC3 cells assessed as VEGF-induced migration at 5 to 30 uM after 24 hrs by wound healing assay; type: functional, cell-based
[31] = test system: PC-3; experiment: Cell cycle arrest in human PC3 cells assessed as accumulation at S phase at 20 uM after 24 hrs by propidium iodide based flow cytometry (reference value: 30%); type: functional
[32] = test system: PC-3; experiment: Down regulation of Bcl-2 in human PC3 cells at 10 to 20 uM after 24 hrs by western blot analysis; type: functional, cell-based
[33] = test system: PC-3; experiment: Induction of apoptosis in human PC3 cells assessed as apoptotic bodies after 24 hrs by fluorescence microscopic analysis; type: functional, cell-based
[34] = test system: PC-3; experiment: Antiproliferative activity against human PC3 cells assessed as cell viability after 12 hrs by MTT assay; type: functional, cell-based; conditions: PC-3, 12 h
[35] = test system: PC-3; experiment: Disruption of mitochondrial membrane potential in human PC3 cells at 10 uM after 24 hrs by rhodamine-123 based fluorescence assay (reference value: 5%); type: functional
[36] = test system: PC-3; experiment: Induction of apoptosis in human PC3 cells assessed as membrane blebbing after 24 hrs by fluorescence microscopic analysis; type: functional, cell-based
[37] = test system: PC-3; experiment: Antiproliferative activity against human PC3 cells assessed as cell viability after 6 hrs by MTT assay; type: functional, cell-based; conditions: PC-3, 6 h

Work on CC1(C)[C@@H](OCc2ccccc2I)CC[C@]2(C)[C@H]3C(=O)C=C4[C@@H]5C[C@@](C)(C(=O)O)CC[C@]5(C)CC[C@@]4(C)[C@]3(C)CC[C@@H]12 yielded an IC50 [1] of over 20 µM, an IC50 [2] of over 20 µM and an IC50 [3] of over 20 µM.

For CC1(C)[C@@H](OCc2ccc(C(F)(F)F)cc2C(F)(F)F)CC[C@]2(C)[C@H]3C(=O)C=C4[C@@H]5C[C@@](C)(C(=O)O)CC[C@]5(C)CC[C@@]4(C)[C@]3(C)CC[C@@H]12, the IC50 [1] was over 20 µM, the IC50 [2] was over 20 µM and the IC50 [3] was over 20 µM.

For CC(=O)O[C@H]1C(=O)[C@@]2(C)[C@H]([C@H](OC(=O)c3ccccc3)[C@]3(O)C[C@H](OC(=O)[C@H](O)[C@@H](NC(=O)c4ccccc4)c4ccccc4)C(C)=C1C3(C)C)[C@]1(OC(C)=O)CO[C@@H]1C[C@@H]2O [PACLITAXEL], the IC50 [1] was 0.1 µM, the IC50 [2] was 0.012 µM and the IC50 [3] was over 100 µM.

CC1(C)[C@@H](OCc2ccc3c(c2)OCO3)CC[C@]2(C)[C@H]3C(=O)C=C4[C@@H]5C[C@@](C)(C(=O)O)CC[C@]5(C)CC[C@@]4(C)[C@]3(C)CC[C@@H]12 gave an IC50 [1] of over 20 µM, an IC50 [2] of over 20 µM and an IC50 [3] of over 20 µM.

In the case of CC1(C)[C@@H](O)CC[C@]2(C)[C@H]3C(=O)C=C4[C@@H]5C[C@@](C)(C(=O)O)CC[C@]5(C)CC[C@@]4(C)[C@]3(C)CC[C@@H]12 [ENOXOLONE], the IC50 [1] is reported as over 20 µM, the IC50 [4] is reported as 63.2 µM and the IC50 [2] is reported as over 20 µM. For the same compound, the IC50 [3] was over 20 µM.

CC1(C)[C@@H](OCc2ccccc2[N+](=O)[O-])CC[C@]2(C)[C@H]3C(=O)C=C4[C@@H]5C[C@@](C)(C(=O)O)CC[C@]5(C)CC[C@@]4(C)[C@]3(C)CC[C@@H]12 showed an IC50 [1] of over 20 µM, an IC50 [2] of over 20 µM and an IC50 [3] of over 20 µM.

Compound CC1(C)[C@@H](OCc2ccc(Br)cc2)CC[C@]2(C)[C@H]3C(=O)C=C4[C@@H]5C[C@@](C)(C(=O)O)CC[C@]5(C)CC[C@@]4(C)[C@]3(C)CC[C@@H]12 has an IC50 [1] of over 20 µM, an IC50 [2] of over 20 µM and an IC50 [3] of over 20 µM.

In the case of CC1(C)[C@@H](OCc2c(F)cccc2Cl)CC[C@]2(C)[C@H]3C(=O)C=C4[C@@H]5C[C@@](C)(C(=O)O)CC[C@]5(C)CC[C@@]4(C)[C@]3(C)CC[C@@H]12, the IC50 [1] is reported as 11 µM, the IC50 [2] is reported as 10 µM and the IC50 [3] is reported as over 100 µM.

For CC(C)=CCO[C@H]1CC[C@]2(C)[C@H]3C(=O)C=C4[C@@H]5C[C@@](C)(C(=O)O)CC[C@]5(C)CC[C@@]4(C)[C@]3(C)CC[C@H]2C1(C)C, the IC50 [1] was over 20 µM, the IC50 [2] was over 20 µM and the IC50 [3] was over 20 µM.

For CC1(C)[C@@H](OCc2c(Cl)cccc2Cl)CC[C@]2(C)[C@H]3C(=O)C=C4[C@@H]5C[C@@](C)(C(=O)O)CC[C@]5(C)CC[C@@]4(C)[C@]3(C)CC[C@@H]12, the Activity [5] was “Dose-dependent effect”, the Activity [6] was “Dose-dependent effect” and the IC50 [1] was 7 µM. It also gave an Activity [7] of 42%, an Activity [8] of 7% and a Ratio [9] of 0.5. The Activity [10] was 8%, the Activity [11] was 12% and the Activity [12] was 40%. For the same compound, the IC50 [13] was 100 µM, the Activity [14] was 12% and the Activity [15] was 44%. For the same compound, the Activity [16] was 59%, the Activity [17] was 1% and the Activity [18] was “Active”. The Activity [19] was “Active”, the Activity [20] was “tde” and the Activity [21] was 38%. For the same compound, the Activity [22] was “Active”, the IC50 [2] was 6 µM and the Activity [23] was 51%. It also gave an IC50 [24] of 15 µM, an Activity [25] of 20% and an Activity [26] of 4%. For the same compound, the Activity [27] was “Active”, the Activity [28] was “Dose-dependent effect” and the Activity [29] was 37%. The Activity [30] was “Dose-dependent effect”, the Activity [31] was 53% and the Activity [32] was “Active”. For the same compound, the IC50 [3] was 19 µM, the Activity [33] was “Dose-dependent effect” and the IC50 [34] was 370 µM. For the same compound, the Activity [35] was 15%, the Activity [36] was “Dose-dependent effect” and the IC50 [37] was 400 µM.

— ChEMBL document CHEMBL3632524, “3-(2,6-Dichloro-benzyloxy)-11-oxo-olean-12-ene-29-oic acid, a semisynthetic derivative of glycyrrhetic acid: synthesis, antiproliferative, apoptotic and anti-angiogenesis activity” (Medchemcomm, 2015)
